This is an account of results in US12187767B2 (priority 2021, dated 2025).

Data set [1] has as its system MCF-7 cells. Briefly: NanoSight nanoparticle tracking analysis (NTA) of released EVs. Type of data set: cell-based. The following applies: MCF-7 cells treated for 48 hr; untreated control 5.16×10^9 particles/ml. As to the method: (§1) 1.3. EV isolation and purification. EVs were isolated from cells by differential centrifugation as previously described (Ali SA. et al., 2010). Untreated cells were used as a control. Briefly, the above treated and untreated cell culture supernatants were centrifuged at 400×g for 10 minutes. The supernatants were transferred to a clear tube and centrifuged at 10,000×g for 30 minutes. The supernatants from the second spin were […] ultracentrifuged at 200,000×g for 2 hours to pellet the EVs. Finally, the EV pellets were re-suspended with PBS and stored at 4° C. until used for analysis.
(§2) 1.5. EV nanoparticle tracking analysis (NTA). Analysis of absolute size distribution of EVs was performed using NanoSight LM10 with NTA2.3 (NanoSight Ltd., Minton Park, UK). EV particles were automatically tracked and sized based on Brownian motion and the diffusion coefficient. After isolation, the untreated and treated EVs were re-suspended in 0.5 mL of PBS. Control medium and filtered PBS were used as controls in this technique. The NTA measurement conditions were: temperature=21.0+/−0.5° C.; viscosity=0.99+/−0.01 cP; frames per second=25; measurement time=30 s. The detection threshold was similar in all samples. […]

Data set [2] has as its system MDA-MB-231 cells. Described as above. Type of data set: cell-based. To be noted: MDA-MB-231 cells treated for 48 hr; control media 4.7×10^9 particles/ml. As to the method: as §1, §2
Data set [3] deals with MCF-7, MDA-MB-231 and K562 cells. Briefly: Exosome/EV release, overall statements across cell lines (AchE, NanoSight, Western blot). Type of data set: cell-based. The method, then:
Acetylcholinesterase (AchE) assays, NanoSight analysis and Western blot analysis were performed to characterize EVs released from MCF-7 and MDA-MB-231 cells treated for 48 hr with the various peptides.
To further examine the underlying mechanism for blocking exosome release, a study was extended to examine the effects of the SMRwt peptides, PEG-SMRwt-Clu peptide and SMRwt-CPP peptide, and the mortalin inhibitors MKT-077, Omeprazole, and DMA on exosome release. In particular, acetylcholinesterase (AchE) assays, NanoSight analysis and Western blot analysis were performed to characterize EVs released from MCF-7, MDA-MB-231 and K562 cells. Panels A, B and C depict the relative numbers of EVs released as a function of time as measured by an acetylcholinesterase (AchE) assay in MCF-7 cells (FIG. 6, Panel A); MDA-MB-231 cells (FIG. 6, Panel B); and K562 cells (FIG. 6, Panel C).

Data set [4] has the same test system. To be noted: previously shown (Huang et al., Oncotarget (2017)); cited from earlier work.
The subject of data set [5] is K562, MCF-7 and MDA-MB-231 cultures. Briefly: Complement-mediated cytotoxicity, overall statements across cell lines. The format is cell-based. The following applies: peptide, then anti-CXCR4 antibody and NHS. The method, then: (§3) Therefore, it was of interest to see whether SMR peptide driven mortalin sequestration and functional disruption increases cell sensitivity to complement-induced cell death. Accordingly, MCF-7, MDA-MB-231, and K562 cells were treated with 280 nM PEG-SMRwt-Clu peptide or 560 nM SMRwt-CPP peptide alone for 60 min at 37° C., followed by treatment with 1 μg/mL anti-CXCR4 antibody and 50 μL normal human serum (NHS; as a source of complement) or normal heat-inactivated (human) serum (NIS) for an additional 60 min at 37° C. (FIG. 8). PEG-SMRmut-Clu peptide and SMRmut-CPP peptide were used as negative controls. The percentage of stained (dead) cells was determined by trypan blue exclusion and is representative of 3 independent experiments.
(§4) To further validate the ability of mortalin neutralization to render or enhance complement-mediated cytotoxicity, MCF-7, MDA-MB-231 and K562 cells were transfected with vectors expressing mortalin siRNAs or negative control siRNAs, incubated for 72 hours at 37° C., treated with anti-CXCR4 antibody for 30 minutes at 4° C. followed by incubation with either NHS or NIS for 60 minutes at 37° C.

Data set [6] deals with MCF-7 cells. The data set can be described thus: Complement-mediated cytotoxicity (anti-CXCR4 antibody plus NHS or NIS, trypan blue exclusion). Type of data set: cell-based. To be noted: 280 nM PEG-SMRwt-Clu or 560 nM SMRwt-CPP. As to the method:
as §3, §4

Data set [7] deals with MDA-MB-231 cells. The description is as above. The format is cell-based. The following applies: 280 nM PEG-SMRwt-Clu or 560 nM SMRwt-CPP. The method, then: as §3, §4
Data set [8] deals with K562 cells. Described as above. The format is cell-based. To be noted: 280 nM PEG-SMRwt-Clu or 560 nM SMRwt-CPP. As to the method:
as §3, §4

For data set [9], the system named is MCF-7 cells. Briefly: Acetylcholinesterase (AchE) assay of exosome/EV release. Type of data set: cell-based. As to the method: as §1
(§5) 1.4. Exosome characterization by acetylcholinesterase (AchE) assay. Purified EVs were quantitated by measurement of AchE as described (Ellman et al., 1961). Briefly, a 100 mM dithibionitrobenzoic (DTNB) solution was prepared for use as a stock color indicator, and a 28.9 mg/mL acetylthiocholine iodide in PBS solution was prepared as a stock substrate. The stock substrate stock can be stored at −20° C. up to one month, while the color indicator can be stored at 4° C. for two weeks. A working solution was prepared by mixing 10 mL of PBS with 200 μL of Substrate and 500 μl of DTNB. 50 μL of each exosome sample was transferred to 96 well microtitre plates, and a standard curve was prepared using AchE from 0.98 mU/mL to 2000 mU/mL. After 50 μL of standards were added into separate wells, 200 μL of the working solution was added to all wells. After 20 min incubation, AchE activity was measured at 450 nm using a SpectroMax M5 fluorimeter.

The subject of data set [10] is MDA-MB-231 cells. Described as above. Type of data set: cell-based. The method, then: as §1, §5
The subject of data set [11] is MCF-7 cells. The data set can be described thus: Western blot analysis of EV protein content. The following applies: 48 hours treatment. Type of data set: cell-based. As to the method:
as §1
(§6) 1.6. Western blot analysis. EVs were isolated from culture supernatants as described above. Protein concentrations were determined by measuring absorbance at 280 nm (Nanodrop 2000). Protein samples were denatured in SDS-PAGE sample buffer by heating at 95° C. for 15 min. Criterion TGX Precast Gels (4-20% Bio-Rad, Richmond, CA) were used to separate the proteins and blotted as previously described (Huang MB. et al 2004). Blots were incubated with the primary antibodies, anti-CD63 and anti-Alix, followed by goat or rabbit anti-Ig secondary antibodies. Specific bands were detected using ECL chemiluminescent substrate (Santa Cruz Biotechnology, Santa Cruz, CA) and visualized on the ImageQuant LAS 4000 imaging system (GE Healthcare, Piscataway, NJ 08854).
(§7) Western blot analysis was used to examine the effects of the SMRwt peptides, PEG-SMRwt-Clu peptide and SMRwt-CPP peptide, and the mortalin inhibitors MKT-077, Omeprazole, and DMA on EV protein content in MCF-7, MDA-MB-231 and K562 cells. Negative control treatments included the PEG-SMRmut-Clu peptide, […] (SEQ ID NO: 49) and the SMRmut-CPP peptide, […] (SEQ ID NO: 50). EVs were isolated from all treated and untreated cell lines screened. Western blot analyses were carried out to evaluate the expression levels of the exosomal proteins, Alix, mortalin, and vimentin in MCF-7 cells (FIG. 7, Panel A, left sub-panel), MDA-MB-231 cells (FIG. 7, Panel A, middle sub-panel), and K562 cells (FIG. 7, Panel A, right sub-panel).

The test system of data set [12] is MDA-MB-231 cells. Briefly: Western blot analysis of EV protein content. To be noted: 48 hours treatment. Type of data set: cell-based. As to the method: as §1, §6, §7
The subject of data set [13] is K562 cells. Briefly: Western blot analysis of EV protein content. To be noted: 48 hours treatment. The format is cell-based. The method, then:
as §1, §6, §7

[14] abbreviates: then anti-CXCR4 antibody and NHS.

“Also recorded” adds a separate entry of the source. Like-named read-outs stand apart in the source and are kept apart here.

Regarding “VGFPVAAVGFPVHPLSKHPYWSQP (SEQ ID NO: 47) [PEG-SMRwt-Clu]”, the “number of particles (NTA)” value is on record as 3.28×10^8 particles/mL in the data set on MCF-7 cells [1] and 6.8×10^8 particles/mL in the data set with MDA-MB-231 cells [2]. The “exosome/EV release (number of EVs released)” value in data set [3] (MCF-7, MDA-MB-231 and K562 cells, five days at 37° C., AchE assay) is reported as “reduced the number of EVs released; also recorded: blocked exosome release”. The exosome release entry is recorded as “blocks exosome release” in [3] (MCF-7 and MDA-MB-231 cells treated for 48 hr); “block exosome release” in data set [4]. Besides, in data set [5], the “complement-mediated cytotoxicity / cell death in the presence of NHS” value is recorded as “induce complement-mediated cytotoxicity”. For the same sequence, the “cell death under complement-negative conditions” value came to 2.1% with MCF-7 cells [6] (60 min), 3.6% in the data set with MDA-MB-231 cells [7] (60 min) and 4.3% with K562 cells [8] (60 min). The “cell death under complement-positive conditions” value came to 26% in the data set with MCF-7 cells [6] (setting [14]), 76% in the data set with MDA-MB-231 cells [7] (setting [14]) and 55% with K562 cells [8] (setting [14]). Further, the “AchE activity in EVs” value in the data set on MCF-7 cells [9] (MCF-7 cells treated for 48 hr, control EVs 113.49 mU/mL) came out at 41.95 mU/mL; with MDA-MB-231 cells [10] (MDA-MB-231 cells treated for 48 hr, control EVs 118.48 mU/mL) it was 66.77 mU/mL. In addition, the “average AChE concentrations throughout days 1 to day 5” value in the data set on MCF-7 cells [9] (MCF-7 cells, five-day treatment at 37° C.) came to 31 mU/mL. Moreover, the “average AChE concentration levels throughout day 1 to 5” value in the data set with MDA-MB-231 cells [10] (MDA-MB-231 cells, five-day treatment at 37° C.) is 42 mU/mL. Also, the “Mortalin expression in EVs” value in the data set with MCF-7 cells [11], in the data set with MDA-MB-231 cells [12] and in the data set on K562 cells [13] was “significantly decreased” each time. For the same sequence, the “Alix expression in EVs” value in the data set with MCF-7 cells [11] (relative to negative controls), in the data set on MDA-MB-231 cells [12] and in the data set on K562 cells [13] was “significantly decreased” each time. Further, the “Vimentin expression in EVs” value with MCF-7 cells [11] (relative to negative controls) and in the data set with MDA-MB-231 cells [12] was “significantly decreased” throughout.
